# “Also recorded” adds a separate entry of the source.
# Tests used:
# [1] = test system: IMR90 normal fibroblast cells; assay: Cell killing / viability, IMR90; format: cell-based
# Method: (§1) FIGS. 8A-8C show analysis of ADAR1i-124 effects in cancer cells. […] Viability was examined using the Apo Tox-Glo assay system. Control, 0.3% DMSO. Data: mean±SD (n=3). Significant differences identified by two-tailed Student's t-tests: *P<0.05, n.s., not significant. (FIG. 8B) Western blotting analysis of HeLa cells treated with ADAR1i-124 (10 μM).
# FIGS. 9A-9C show dose-dependent killing of cancer cells and activation of IFN signaling. […] YUMM1.7 (FIG. 9B) and HGS2 cells (FIG. 9C) were treated with ADAR1i-124 at 10 μM (12 hrs). RNA samples were analyzed by qRT-PCR to monitor ISG expression levels. Data: mean±SD (n=3). Significant differences were identified by two-tailed Student's t-tests: ***P<0.001.
# (§2) Dose-dependent selective killing of telomerase reactivated cancer cells was determined (FIG. 9A).
# [2] = biological target: T1, ADAR1p110 (Homo sapiens, UniProt P55265); assay: In vitro editing assay with recombinant ADAR1p110 and synthetic dsRNA; format: biochemical; conditions: for IC50: ADAR1p110, dose-dependent in vitro editing assay; for Inhibition of ADAR1p110 editing: in vitro editing assay, result in words
# T1 construct: HAT (N); made in house; host or cells: Sf9 cells (baculovirus)
# T1 sequence (P55265 1-931 isoform P55265-5): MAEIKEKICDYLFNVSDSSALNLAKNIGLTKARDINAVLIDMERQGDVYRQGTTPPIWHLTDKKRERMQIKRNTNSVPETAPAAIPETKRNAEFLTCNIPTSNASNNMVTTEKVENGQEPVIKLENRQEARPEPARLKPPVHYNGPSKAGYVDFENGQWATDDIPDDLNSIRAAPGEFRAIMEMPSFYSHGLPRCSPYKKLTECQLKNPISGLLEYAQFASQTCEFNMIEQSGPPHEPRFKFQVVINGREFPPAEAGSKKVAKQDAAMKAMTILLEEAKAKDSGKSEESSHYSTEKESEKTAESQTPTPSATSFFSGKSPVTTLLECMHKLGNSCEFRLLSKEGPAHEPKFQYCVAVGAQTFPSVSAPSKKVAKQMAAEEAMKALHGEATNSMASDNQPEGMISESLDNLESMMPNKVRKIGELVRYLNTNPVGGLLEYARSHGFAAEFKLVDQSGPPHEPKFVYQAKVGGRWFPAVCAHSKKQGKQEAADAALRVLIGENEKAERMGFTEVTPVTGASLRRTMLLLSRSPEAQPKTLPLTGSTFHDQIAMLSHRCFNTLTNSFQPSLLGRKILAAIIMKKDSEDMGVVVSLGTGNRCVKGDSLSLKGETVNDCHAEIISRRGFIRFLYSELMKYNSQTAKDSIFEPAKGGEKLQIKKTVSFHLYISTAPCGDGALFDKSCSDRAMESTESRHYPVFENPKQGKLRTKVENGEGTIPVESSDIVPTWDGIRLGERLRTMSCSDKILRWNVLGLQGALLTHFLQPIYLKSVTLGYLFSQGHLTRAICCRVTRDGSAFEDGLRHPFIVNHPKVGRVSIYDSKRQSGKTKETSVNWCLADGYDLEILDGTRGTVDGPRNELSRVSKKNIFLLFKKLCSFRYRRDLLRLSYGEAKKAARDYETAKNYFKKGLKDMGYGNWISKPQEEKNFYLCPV
# Method: In vitro editing assay using purified HAT-ADAR1p110 and a synthetic dsRNA was conducted at varying concentrations of ADAR1i-124. The editing efficiency was determined by the guanosine peak replacing the adenosine peak of cDNA sequencing chromatograms.
# The in vitro editing reaction mixture, containing 5 nM of telomere RNA:RNA duplex substrates and 75 nM of HAT-ADAR1p110-WT, FLAG-ADAR1p110-WT, or HA-ADAR1p110-EAA protein, was incubated at 37° C. for 2 h in in vitro editing buffer I (20 mM HEPES-KOH PH 7.5, 100 mM NaCl, 0.01% NP-40, 5% glycerol, 1 mM DTT). For editing of RNA:DNA hybrid substrates, in vitro editing buffer II (20 mM HEPES-KOH PH 7.5, 20 mM NaCl, 0.01% NP-40, 5% glycerol, 1 mM DTT) was used. Edited RNA or DNA strands were purified using Dynabeads MyOne Streptavidin C1 (Thermo Fisher Scientific). To remove opposite RNA or DNA strands, rNase H (NEB) or TURBO dNase (Thermo Fisher Scientific) was used, respectively. For sequencing of edited substrates, reverse transcription-PCR was carried out for RNA strands, while PCR was carried out for DNA strands. RT reactions were carried out using SuperScript III Reverse Transcriptase (Thermo Fisher Scientific), and PCR reactions were performed using Platinum Taq DNA polymerase (Thermo Fisher Scientific). PCR products were sequenced using a specific sequencing primer, and the ratio of A and G peaks in the chromatograms were analyzed by CodonCode Aligner (CodonCode Corporation).
# In a previous study, the 54 compounds identified in the high-throughput screen were further tested in the in vitro editing assay described in Examples 2 and 3. The in vitro editing reaction mixture, containing 5 nM of telomere RNA:RNA duplex substrates and 75 nM of HAT-ADAR1p110-WT, FLAG-ADAR1p110-WT, or HA-ADAR1p110-EAA protein, was incubated at 37° C. for 2 h in in vitro editing buffer I (20 mM HEPES-KOH PH 7.5, 100 mM NaCl, 0.01% NP-40, 5% glycerol, 1 mM DTT) with 10 microM test compound. For editing of RNA:DNA hybrid substrates, in vitro editing buffer II (20 mM HEPES-KOH PH 7.5, 20 mM NaCl, 0.01% NP-40, 5% glycerol, 1 mM DTT) was used. Edited RNA or DNA strands were purified using Dynabeads MyOne Streptavidin C1 (Thermo Fisher Scientific). To remove opposite RNA or DNA strands, Rnase H (NEB) or TuRBO Dnase (Thermo Fisher Scientific) was used, respectively. For sequencing of edited substrates, reverse transcription-PCR was carried out for RNA strands, while PCR was carried out for DNA strands. RT reactions were carried out using SuperScript III
# Reverse Transcriptase (Thermo Fisher Scientific), and PCR reactions were performed using Platinum Taq DNA polymerase (Thermo Fisher Scientific). PCR products were sequenced using a specific sequencing primer, and the ratio of A and G peaks in the chromatograms were analyzed by CodonCode Aligner (CodonCode Corporation).
# [3] = test system: HeLa cells; assay: Western blotting of treated HeLa cells (DNA damage, M phase arrest, apoptosis); format: cell-based, human; conditions: 10 μM for ADAR1i-124
# Method: as §1, §2
SMILES,Killing of IMR90 cells [1],IC50 [2] [µM],Inhibition of ADAR1p110 editing [2],"Substrate preference of editing inhibition (matched vs A-C mismatched dsRNA) ([2]; recombinant ADAR1p110, matched and mismatched dsRNA substrates, 10 microM test compound)","DNA damage, M phase arrest and apoptosis markers [3]"
"N#Cc1ccc(NC(=O)c2sc3ccccc3c2Cl)cc1 [ADAR1i-13, 3-chloro-N-(4-cyanophenyl)-1-benzothiophene-2-carboxamide]",not ALT U2OS cells or IMR90 normal fibroblast cells,10 to 20,"inhibited ADAR1p110 editing of all three substrates tested, including the DNA:RNA hybrid substrate",preferentially inhibited matched adenosines,"induced DNA damage, M phase arrest, and apoptosis"
N#Cc1ccccc1NC(=O)c1sc2ccccc2c1Cl [ADAR1i-120],not ALT U2OS cells or IMR90 normal fibroblast cells,10 to 20,ADAR1 inhibitory activities,–,"induced DNA damage, M phase arrest, and apoptosis"
N#Cc1ccc(NC(=O)c2c(Cl)c3ccccc3n2CO)cc1 [ADAR1i-124],not ALT U2OS cells or IMR90 normal fibroblast cells; also recorded: unaffected,10 to 20,ADAR1 inhibitory activities; also recorded: inhibited both ADAR1p150 and ADAR1p-110,–,"induced DNA damage, M phase arrest, and apoptosis; also recorded: upregulated g-H2AX, Histone 3 phosphorylated at Serine 10, and cleaved PARP bands"

# From patent US20260272878A1, “ADAR1 INHIBITORS AND USES THEREOF” (THE WISTAR INSTITUTE OF ANATOMY AND BIOLOGY, priority 2023, published 2026)
